Holding throughout (assay type): cell-based
Assay [1] has as its system MDA-MB-453 breast cancer cell line. Nature of the assay: Anti-proliferation assay, synergy score, MDA-MB-453. The settings on record: in combination with Compound 1, 72 h, mean self cross score + 2σ 2.99. On the procedure:
(§1) Anti-Proliferation Assay. Cells were thawed from a liquid nitrogen preserved state. Once cells expanded and divided at their expected doubling times, screening began.
(§2) Cells were equilibrated in assay plates via centrifugation and placed in incubators attached to the Dosing Modules at 37° C. for twenty-four hours before treatment. […] These T zero (T0) plates were read using ultra-sensitive luminescence on Envision Plate Readers. Treated assay plates were incubated with compound (single compound or combination) for seventy-two hours. After seventy-two hours, platesweare developed for endpoint analysis using ATPLite. […] The calculation for synergy score is provided below.
(§3) Growth Inhibition (GI) was used as a measure of cell viability. The cell viability of vehicle was measured at the time of dosing (T0) and after seventy-two hours (T72). […] A GI 200% represents complete death of all cells in the culture well. Compounds reaching an activity plateau of GI 200% are considered cytotoxic. GI is calculated by applying the following test and equation: […]
(§4) where T is the signal measure for a test article, V is the vehicle-treated control measure, and V0 is the vehicle control measure at time zero. This formula is derived from the Growth Inhibition calculation used in the National Cancer Institute's NCI-60 high throughput screen.
(§5) Synergy Score Analysis. Synergy scores were determined using the Chalice Software (Zalicus Inc., Cambridge Mass.). […] The Synergy Score is calculated as: […]
(§6) The fractional inhibition for each component agent and combination point in the matrix was calculated relative to the median of all vehicle-treated control wells. […]
(§7) In order to objectively establish hit criteria for the combination screen analysis, twenty compounds were selected to be self-crossed across the seventeen cell line panel as a means to empirically determine a baseline additive, non-synergistic response. The identity of the twenty self-cross compounds was determined by selecting compounds with a variety of maximum response values and single agent dose response steepness.

Assay [2] has as its system MDA-MB-175-VII breast cancer cell line. Nature of the assay: Anti-proliferation assay, synergy score, MDA-MB-175-VII. The settings on record: in combination with Compound 1, 72 h, mean self cross score + 2σ 2.82. The procedure: as §1, §2, §3, §5, §6
Assay [3] deals with HCC-1187 breast cancer cell line. As to the kind of experiment: Anti-proliferation assay, synergy score, HCC-1187. The settings on record: in combination with Compound 1, 72 h, mean self cross score + 2σ 4.80. On the procedure: as §1, §2, §3, §4, §5, §6, §7
Assay [4] has as its system BT-474 breast cancer cell line. Nature of the assay: Anti-proliferation assay, synergy score, BT-474. The conditions noted are these: in combination with Compound 1, 72 h, mean self cross score + 2σ 3.37. On the procedure: as §1, §2, §3, §4, §5, §6, §7
The subject of assay [5] is BT-549 breast cancer cell line. Nature of the assay: Anti-proliferation assay, synergy score, BT-549. The settings on record: in combination with Compound 1, 72 h, mean self cross score + 2σ 3.94. The procedure:
as §1, §2, §3, §4, §5, §6, §7

The subject of assay [6] is HCC-1937 breast cancer cell line. As to the kind of experiment: Anti-proliferation assay, synergy score, HCC-1937. The conditions noted are these: in combination with Compound 1, 72 h, mean self cross score + 2σ 2.89. The procedure:
as §1, §2, §3, §4, §5, §6, §7

The test system of assay [7] is HCC-1806 breast cancer cell line. Nature of the assay: Anti-proliferation assay, synergy score, HCC-1806. The settings on record: in combination with Compound 1, 72 h, mean self cross score + 2σ 5.05. The procedure:
as §1, §2, §3, §4, §5, §6, §7

The test system of assay [8] is BT-20 breast cancer cell line. As to the kind of experiment: Anti-proliferation assay, synergy score, BT-20. The conditions noted are these: in combination with Compound 1, 72 h, mean self cross score + 2σ 3.23. The procedure: as §1, §2, §3, §4, §5, §6, §7
The test system of assay [9] is HCC-1428 breast cancer cell line. As to the kind of experiment: Anti-proliferation assay, synergy score, HCC-1428. The settings on record: in combination with Compound 1, 72 h, mean self cross score + 2σ 3.22. The procedure:
as §1, §2, §3, §4, §5, §6, §7

Assay [10] concerns HCC-1500 breast cancer cell line. Nature of the assay: Anti-proliferation assay, synergy score, HCC-1500. The conditions noted are these: in combination with Compound 1, 72 h, mean self cross score + 2σ 4.17. On the procedure:
as §1, §2, §3, §4, §5, §6, §7

For assay [11], the system named is 5637 (bladder cancer, romidepsin sensitive cell line). As to the kind of experiment: Anti-proliferation assay (CellTiter-Glo), Bliss independence model, 5637. The conditions noted are these: combination treatment with Romidepsin, 5637 (S), 72 h, greater than 10% considered synergistic. On the procedure: (§8) Anti-Proliferation Assay. […] Cells were thawed from a liquid nitrogen preserved state. Once cells were expanded and divided at their expected doubling times, screening began. Cells were seeded in their respective growth media in 96-well tissue culture treated plates at 2000 cells/well and placed in incubators at 37° C. the night before treatment. […] These T zero (T0) plates were read using luminescence on Spectramax Plate Readers. Treated assay plates were incubated with Compound for seventy-two hours. After seventy-two hours, plates were developed for endpoint analysis using CellTiter-Glo. The calculation for synergy score is provided below.
(§9) Growth Inhibition (GI) was used as a measure of cell viability. The cell viability of vehicle was measured at the time of dosing (T0) and after seventy-two hours (T72). A GI reading of 0% represents no growth inhibition—cells treated with compound and T72 vehicle signals are matched. A GI 100% represents complete growth inhibition—cells treated by compound and T0 vehicle signals are matched. […] A GI 200% represents complete death of all cells in the culture well. […] GI is calculated by applying the following test and equation: […]
(§10) We next compared the expected compound effect to the observed compound effect, and calculated the differences between the observed and the expected cell viability, expressed as % of control. […]
On the technique in general: ATP-based viability assays read luminescence as a measure of living cells.

The subject of assay [12] is SKOV3 (ovarian cancer, romidepsin resistant cell line). Nature of the assay: Anti-proliferation assay (CellTiter-Glo), Bliss independence model, SKOV3. The settings on record: combination treatment with Romidepsin, SKOV3 (R), 72 h, greater than 10% considered synergistic. On the procedure: as §8, §9, §10
Assay [13] deals with 5637 and SKOV3 cancer cell lines. As to the kind of experiment: Anti-proliferation assay (CellTiter-Glo), Bliss independence model, overall conclusion. The conditions noted are these: combination with romidepsin. The procedure: as §8, §9, §10

As to `O=C(/C=C/c1cccc(S(=O)(=O)Nc2ccccc2)c1)NO` [Belinostat], the “Synergy Score” value in [1] is recorded as 14.80; in assay [2] it was 3.21; in assay [3], 4.60; in assay [4] it was 6.88; in [5], 9.09; in assay [6], 14.50. For the same molecule, the “Synergy Score” value in assay [7] amounted to 11.40; in [8], 9.26; in assay [9] it was 7.23; in [10], 4.58.

`CCN1C(=O)CNc2ncc(-c3ccc(-c4nc[nH]n4)nc3C)nc21` [Compound 1, 1-ethyl-7-(2-methyl-6-(1H-1,2,4-triazol-3-yl)pyridin-3-yl)-3,4-dihydropyrazino[2,3-b]pyrazin-2(1H)-one]: the “differences between observed and expected cell viability (% of control)” value stood at 16% in assay [11] and 23% in assay [12].

Take `CO[C@H]1CC[C@H](N2C(=O)CNc3ncc(-c4ccc(C(C)(C)O)nc4)nc32)CC1` [Compound 2, 7-(6-(2-hydroxypropan-2-yl)pyridin-3-yl)-1-((1r,4r)-4-methoxycyclohexyl)-3,4-dihydropyrazino-[2,3-b]pyrazin-2(1H)-one]: the “differences between observed and expected cell viability (% of control)” value was 19% in assay [11] and 27% in [12]. In addition, the “combination effect (conclusion in words)” value in assay [13] is given as “synergism was observed”.

Turning to `Nc1ccccc1NC(=O)c1ccc(CNC(=O)OCc2cccnc2)cc1` [MS-275], the “Synergy Score” value came to 14.60 in assay [1]; 6.71 in assay [2]; 7.64 in assay [3]; 7.79 in assay [4]; 11.80 in [5]; 9.75 in [6]. Also, the “Synergy Score” value in assay [7] is 10.00; in assay [8], 5.84; in [9] it was 1.65; in assay [10], 2.18.

With `C/C=C1\NC(=O)[C@H]2CSSCC/C=C/[C@H](CC(=O)N[C@H](C(C)C)C(=O)N2)OC(=O)[C@H](C(C)C)NC1=O` [Romidepsin, (1S,4S,7Z,10S,16E,21R)-7-ethylidene-4,21-bis(1-methylethyl)-2-oxa-12,13-dithia-5,8,20,23-tetrazabicyclo[8.7.6]tricos-16-ene-3,6,9,19,22-pentone], the “Synergy Score” value is recorded as 13.80 in assay [1]; 6.10 in [3]; 6.00 in [4]; 12.00 in [5]; 12.50 in assay [6]; 8.39 in assay [7]. In addition, the “Synergy Score” value in [8] amounted to 8.00; in assay [9], 4.80; in [10], 4.80.
